Results taken from patent publication US20230406839A1, “Bifunctional Compounds And Methods Of Using The Same” (The General Hospital Corporation, priority 2020, published 2023).

Legend:
[1] = tested on: HeLa cells; assay: Azide metabolic labeling of HeLa cells, detected with DBCO-FAM in a fluorescent plate reader; assay type: cell-based; settings: AzNAM 25-125 μM for 20 hours, then DBCO-FAM 10 μM for 1 hour, 96-well plate reader (FIG. 1)
Experimental: Initially, cells are cultured in a suitable culture vessel such that their level of confluency at the time of addition of the azide-modified sugar AzNAM is not more than 80%.
In particular, HeLa cells were plated in 6-well plates (2.5×10^4 cells/well) and incubated for 48 hours in DMEM-10% FBS medium in a standard 5% CO2 atmosphere. Medium from each well was removed, and each well was washed with 2 ml of phosphate buffered saline (PBS), and fresh DMEM-FBS (1 ml) added. Subsequently, varying amounts of AzNAM (solubilized in DMSO) were added to the wells in small (10 μl) volumes to produce the desired final concentrations in the range 25-125 μM. After an additional 20 hours incubation, the medium in each well was removed, and the wells were washed with 2 ml of PBS, followed by addition of 1 ml of PBS. Then, a fluorescent bio-orthogonally azide-reactive reagent DBCO-FAM (Broadpharm) was directly added to each well to produce a final concentration of 10 μM.
Plates with added DBCO-FAM were protected from bright light and incubated for 1 hour at room temperature. Supernatants in each well were then removed, and each well was washed twice with 2 ml of PBS. […] After pelleting and washing in PBS, cells were resuspended in 150 μl of PBS and counted. Defined numbers in 50 μl volumes in a 96-well Blackwell plate (Corning) were assayed for fluorescence in a fluorescent plate reader (Tecan).

[2] = tested on: HeLa cells; assay: Azide metabolic labeling of HeLa cells, detected with DBCO-FAM by flow cytometry; assay type: cell-based; settings: AzNAM 125 μM for 20 hours, versus cells receiving no azide-modified sugar (FIG. 2)
Experimental: In separate trials, HeLa cells were added to wells of a 12-well plate at 10,000 cells/well, and cultured for 72 hours under normal conditions. The wells were then washed with 1 ml of PBS, and 0.5 ml of DMEM-10% FBS was added. AzNAM was then added to a final concentration of 125 μM, with cells receiving no azide-modified sugar as controls. After 20 hours, cells were harvested with CellStripper (250 μl/well), washed with PBS, and subjected to flow analysis.

azido-N-acetylmannosamine [AzNAM]
cell-associated fluorescence after reaction with DBCO-FAM [1]: cell-associated fluorescence increased as a function of the levels of AzNAM | flow cytometry peak shift after reaction with DBCO-FAM [2]: marked and well-demarcated peak shifts were observed
